Reference: patent US20240216250A1, “COSMETIC PEPTIDES FOR IMPROVING SKIN REJUVENATION” (Lean Life Sciences, Inc., priority 2021, published 2024)
Ends that are not written are not given here.

Assays:
3T3-L1 fibroblast = experiment: Collagen and fibronectin production in 3T3-L1 fibroblast by ELISA, with cell number; assay type: cell-based, mouse; conditions: across treatment groups
Text: Effects of […] (SEQ ID NO: 5) on collagen and fibronectin production are validated in mouse fibroblast. A mouse fibroblast cell line is purchased from American Type Culture Collection (ATCC) to be used in all in vitro studies (3T3-L1 CL-173). The cells are first thawed into two T75 flasks per 1 million cell vial in basal medium I (BMI), which is composed of DMEM (4.5 g/l glucose) supplemented with 10% FBS and 1% Penicillin Streptomycin (P/S). The media is changed the following day, and on day 3, the cells are seeded in 96-well plates (200 μl/well). The peptide was administered to 3T3-L1 fibroblast in five varying concentrations. Collagen and fibronectin produced from the cell was assessed in the cell culture media 3 days after the peptide treatment by ELISA.

prohibitin = molecular target: T1, prohibitin (Mus musculus, UniProt P67778); experiment: ATS/prohibitin binding by ATS magnetic beads, immunoprecipitation and western blot; conditions: fractionated proteins from adipocytes captured on ATS magnetic beads, western blotting (A of FIG. 2)
T1 construct: Fractionated proteins isolated from adipocytes were incubated with the ATS magnetic beads; endogenous in cells; probably 3T3-L1
T1 sequence (P67778 2-272 limits assumed): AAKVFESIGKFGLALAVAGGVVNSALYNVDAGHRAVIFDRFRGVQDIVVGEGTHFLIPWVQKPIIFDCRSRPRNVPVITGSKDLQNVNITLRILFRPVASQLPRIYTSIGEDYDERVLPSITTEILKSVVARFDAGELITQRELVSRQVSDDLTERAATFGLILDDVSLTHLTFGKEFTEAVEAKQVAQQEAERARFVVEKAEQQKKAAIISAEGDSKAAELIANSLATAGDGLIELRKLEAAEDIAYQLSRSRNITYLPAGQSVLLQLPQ
Text: FIG. 2: ATS/prohibitin binding determined by immunoprecipitation and western blot (A of FIG. 2). Location and degree of prohibitin expression in pre- or mature adipocytes. PM, plasma membrane; Cyt, Cytoplasm (B of FIG. 2). Confocal micrographs showing the location of prohibitin in mature- or pre-adipocytes (C of FIG. 2).
It was confirmed that prohibitin shifts its location to the cell membrane as adipogenesis progresses and ATS binds to prohibition. The ATS/prohibitin binding was verified in pre- or mature adipocytes (Won, Y. W. et al. Nat Mater 13, 1157-1164, (2014)). Fractionated proteins isolated from adipocytes were incubated with the ATS magnetic beads and the protein captured by ATS was identified by western blotting. […] Prohibitin is observed in several intracellular locations at varying expression levels depending on the degree of adipogenesis (Wang, P. et al. Cell Mol Life Sci 61, 2405-2417, (2004); Patel, N. et al. Proceedings of the National Academy of Sciences of the United States of America 107, 2503-2508, (2010)). The degree and location of prohibitin expression in pre- or mature adipocytes was determined. […] Confocal microscopy also verified the prohibitin expression on the cell membrane of mature adipocytes (C of FIG. 2). High-level prohibitin expression on the cell membrane of mature adipocytes is important to the ATS/prohibitin interaction.

3T3-L1 mature adipocytes = experiment: Lipid accumulation in 3T3-L1 adipocytes by Oil Red O staining, with cell count; assay type: cell-based, mouse; conditions: Oil Red O, microscopy, peptides at 100 μM, three times per week for three weeks (Day 21), vs non-treated control
Experimental: FIG. 3: Representative photomicrographs showing Oil Red O-stained mature adipocytes treated with peptides at 100 μM (Day 21). H: Quantitative analysis of the lipids accumulated in the adipocytes (Day 21). Control absorbance: 0.526 (Red line). I: Relative cell counts on day 21.
The effects of the minimal short peptides in blocking lipid accumulation in adipocytes were compared with their parent full-length peptide. After generating five different 3 amino acid fragments (KGG, GGR, GRA, RAK, and AKD) from the original ATS peptide (KGGRAKD (SEQ ID NO:1)), each peptide was administered to 3T3-L1 pre-adipocytes in five varying concentrations. Peptides were treated to the adipocytes three times per week for three weeks. Oil Red O staining was utilized to assess the lipid contents in mature adipocytes in culture. The morphological characteristics of 3T3-L1 mature adipocytes were observed by microscopy. […] Furthermore, the lipids were quantitatively analyzed.
The number of viable cells is counted prior to Oil Red O staining using Cell Counting Kit 8 (Dojindo). This cell viability study allows one to determine potential toxicities of the peptides and compensate for cell number variation-causing artifacts. Oil Red O is dissolved in isopropanol at […] to create a working solution. 12 ml of Oil Red O working solution is mixed with 8 ml dH2O and incubated for 10 minutes. This solution is then filtered using a 0.2 μm syringe filter. Adipocytes seeded on 96-well plates are washed with PBS twice. 10% formaldehyde is added for initial fixation and the plates are incubated for at least 30 minutes. The formaldehyde is removed and the cells are once again washed twice, this time with dH2O. 60% isopropanol is added to each well. The plates are incubated for 5 minutes. The isopropanol is removed from the wells and replaced with Oil Red O working solution. The plates are incubated for an additional 10 minutes. The Oil Red O solution is removed and washed four times with dH2O. Lastly, digital micrographs of the lipid droplets in adipocytes are taken using a light microscope. After the staining protocol, all plates are washed three times with 60% isopropanol. Each time, 5 minutes of gentle rocking was used. The Oil Red O is extracted with 100% isopropanol with gentle rocking for 5 minutes. 200 μl isopropanol per well is used as a background to measure absorbance at 492 nm using a BioTek microplate reader.

3T3-L1 cells = experiment: Fructose, glucose and sucrose concentration in adipocytes (3T3-L1 cell lysates, Fructose Assay Kit); assay type: cell-based, mouse; conditions: Examples 1-2 to 1-11, same manner as Example 1-1
Experimental: Fructose concentration in 3T3-L1 cell lysates was measured using the Fructose Assay Kit (Abcam, Cambridge, UK). Six-well plates were seeded with 5×10^5 3T3-L1 cells/well one day before treating with 150 μM peptide. After 48 hours of treatment, the cells were harvested and fructose concentrations were assayed according to the manufacturer's instruction.
In order to confirm the effect of peptides on reducing the fructose level in adipocytes, three groups of adipocytes were prepared. Among the three groups, one group was treated with GGR, and another group was treated with RAK. The remaining group was not treated with any peptides and used as a control group. […] Fructose—an intermediate metabolite of glucose—was measured to further probe glucose metabolism. 3T3-L1 cells treated with either peptide had lower fructose concentrations than untreated cells (FIG. 1).
An additional group of adipocytes are treated with one of KGGRAKD, KGG, GGR, GRA, RAK, AKD, DKA, KAR, ARG, RGG, GGK, and DKARGGK in the same manner as Example 1-1.

ACTGSTQHQGGGSESPLKRQG
Cell number at the end point (toxicity) (3T3-L1 fibroblast): almost the same across the treatment groups

KGGRAKD
Binding of ATS to prohibitin (prohibitin): specifically binds to prohibitin | Number and size of lipid droplets in adipocytes (3T3-L1 mature adipocytes): smaller than those in the non-treated control | Fructose concentration in adipocytes vs control group (3T3-L1 cells): significantly lower than the control group
